These results are taken from patent US11957687B2 (REGENERON PHARMACEUTICALS, INC., priority 2019, dated 2024).

What all share (type): biochemical
The target of one assay is HSD17B13 (Homo sapiens (Human), UniProt Q7Z5P4). In words: HSD17B13 enzymatic inhibition assay (150 nM or 50 nM HSD17B13). As to conditions: 50 nM HSD17B13; read-out: Inhibition of 50 nM of HSD17B13 IC50.
The target of a further assay is HSD17B2 (Homo sapiens (Human), UniProt P37059). In words: HSD17B2 enzymatic blocking assay. As to conditions: 1.8 μM Estradiol, 650 μM NAD; read-out: Inhibition of HSD17B2 IC50. The procedure: To screen compounds of the disclosure for their ability to block HSD17B2 function, an enzymatic blocking assay was performed. For the assay, HSD17B2 activity was measured by detecting NADH formation from oxidation of Estradiol using a NADH Glo luminescence assay (Promega, #Cat. No. G9062). Compounds of the disclosure were evaluated in a dose titration assay where the compounds were titrated at 10-point dose curve using an Echo-555 liquid handling dispenser. HSD17B2 (SEQ ID NO: 3, expressed in mammalian cells) was added at a final concentration of 2 ng/μL in a buffer containing 50 mM Tris-HCl, pH 7.5, Pluronic F-127 0.05%, Tween20 0.01%, BSA 0.01% into a low volume white 384-well assay plate. Compounds were incubated with the enzyme for 15 min at 20° C. The assay reaction was then initiated by addition of 1.8 μM Estradiol substrate (Sigma, catalog #E2758-250MG, CAS: 50-28-2) and 650 μM NAD co-factor, and the reaction mixture was incubated for 45 min at 20° C. DMSO at a concentration of 0.5% was used as a negative control and a ‘no substrate’ control was used a positive control in the assay. Detection reagent was then added as per manufacturer's instructions, and the plate was subsequently incubated in the dark for 1 hour at room temperature, NADH generated was detected in the luminescence mode on the Envision Perkin Elmer plate reader. The IC50 values were determined using Dotmatics analysis software.
HSD17B2, sequence (P37059 other isoform, or with tags, fused parts or gaps): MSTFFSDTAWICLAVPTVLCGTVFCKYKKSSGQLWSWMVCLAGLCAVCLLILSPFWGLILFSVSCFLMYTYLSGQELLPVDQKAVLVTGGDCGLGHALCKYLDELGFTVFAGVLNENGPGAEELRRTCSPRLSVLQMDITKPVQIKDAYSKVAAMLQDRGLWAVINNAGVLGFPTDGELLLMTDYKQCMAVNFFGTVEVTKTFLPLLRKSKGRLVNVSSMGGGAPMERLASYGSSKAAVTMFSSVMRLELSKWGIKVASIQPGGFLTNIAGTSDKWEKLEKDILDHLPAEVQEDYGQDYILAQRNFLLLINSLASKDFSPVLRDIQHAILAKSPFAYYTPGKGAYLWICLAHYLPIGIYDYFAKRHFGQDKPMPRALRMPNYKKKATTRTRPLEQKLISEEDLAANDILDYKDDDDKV

In a further assay the target is HSD17B1 (Homo sapiens (Human), UniProt P14061). Description: HSD17B1 enzymatic blocking assay. As to conditions: 25 μM Estradiol, 500 μM NAD; read-out: Inhibition of HSD17B1 IC50. On the procedure:
To screen compounds of the disclosure for their ability to block HSD17B1 function, an enzymatic blocking assay was performed. For the assay, HSD17B1 activity was measured by detecting NADH formation from oxidation of Estradiol using a NADH Glo luminescence assay (Promega, #Cat. No. G9062). […] Compounds were incubated with the enzyme for 30 minutes at room temperature. […] DMSO at a concentration of 0.5% was used as a negative control and a ‘no substrate’ control was used a positive control in the assay. Detection reagent was then added as per manufacturer's instructions, and the plate was subsequently incubated in the dark for 1 hour at room temperature, NADH generated was detected in the luminescence mode on the Envision Perkin Elmer plate reader. The IC50 values were determined using Dotmatics analysis software.

HSD17B13, sequence (Q7Z5P4 other isoform, or with tags, fused parts or gaps): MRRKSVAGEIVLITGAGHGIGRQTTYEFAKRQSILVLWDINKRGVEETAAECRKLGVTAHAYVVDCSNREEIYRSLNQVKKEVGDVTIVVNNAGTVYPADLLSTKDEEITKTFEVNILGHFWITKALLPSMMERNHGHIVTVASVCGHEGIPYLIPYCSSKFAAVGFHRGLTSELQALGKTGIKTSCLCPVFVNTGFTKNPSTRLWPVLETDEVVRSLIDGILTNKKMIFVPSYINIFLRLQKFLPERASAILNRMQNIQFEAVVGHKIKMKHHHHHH
HSD17B1, sequence (P14061 other isoform, or with tags, fused parts or gaps): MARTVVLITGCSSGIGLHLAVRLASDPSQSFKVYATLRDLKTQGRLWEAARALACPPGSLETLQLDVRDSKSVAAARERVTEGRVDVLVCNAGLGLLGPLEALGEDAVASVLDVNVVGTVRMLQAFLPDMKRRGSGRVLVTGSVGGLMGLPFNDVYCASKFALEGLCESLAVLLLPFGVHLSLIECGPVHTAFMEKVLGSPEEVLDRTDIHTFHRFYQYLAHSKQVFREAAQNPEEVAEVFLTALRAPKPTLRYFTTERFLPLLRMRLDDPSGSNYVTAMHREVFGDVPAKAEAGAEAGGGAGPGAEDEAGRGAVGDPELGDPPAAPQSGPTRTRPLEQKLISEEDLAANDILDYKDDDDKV

In general, IC50 refers to the concentration that gives 50% inhibition. With `N#Cc1ccc(C(NC(=O)c2ccc(C(F)(F)F)[nH]c2=O)c2ccccc2)cc1` (stereo not drawn) [Compound 12A, N-((4-cyanophenyl)(phenyl)methyl)-2-oxo-6-(trifluoromethyl)-1,2-dihydropyridine-3-carboxamide], the IC50 at HSD17B13 was 0.56 µM; on HSD17B2 it was 23.7 µM; on HSD17B1, more than 30 µM.

On to `O=C(NC1c2ccccc2Oc2ccc(C3CC3)cc21)c1ccc(C(F)(F)F)[nH]c1=O` (stereo not drawn) [Compound 161, N-(2-cyclopropyl-9H-xanthen-9-yl)-2-oxo-6-(trifluoromethyl)-1,2-dihydropyridine-3-carboxamide], for which the IC50 at HSD17B13 was 0.27 µM; on HSD17B2, 8.22 µM; at HSD17B1, 9.16 µM.

As for `CCc1cc(C(=O)NC2c3ccc(C)cc3Oc3cc(C)ccc32)c(=O)[nH]c1C(F)(F)F` [Compound 176, N-(3,6-dimethyl-9H-xanthen-9-yl)-5-ethyl-2-oxo-6-(trifluoromethyl)-1,2-dihydropyridine-3-carboxamide], the IC50 was determined as 0.02 µM on HSD17B13, 28.3 µM at HSD17B2 and 6.43 µM on HSD17B1.

`Cc1ccc2c(c1)Oc1cc(C)ccc1C2NC(=O)c1cc(-c2ccccc2)c(C(F)(F)F)[nH]c1=O` [Compound 177, N-(3,6-dimethyl-9H-xanthen-9-yl)-2-oxo-5-phenyl-6-(trifluoromethyl)-1,2-dihydropyridine-3-carboxamide]: the IC50 at HSD17B13 came to 0.04 µM; at HSD17B2 it was 14.6 µM; on HSD17B1, 4.21 µM.

On to `CCCc1cc(C(=O)NC2c3ccc(Cl)cc3Oc3cc(Cl)ccc32)c(=O)[nH]c1C(F)(F)F` [Compound 178, N-(3,6-dichloro-9H-xanthen-9-yl)-2-oxo-5-propyl-6-(trifluoromethyl)-1,2-dihydropyridine-3-carboxamide], for which the IC50 on HSD17B13 came out at 0.06 µM; on HSD17B2, 64 µM; at HSD17B1, 28.7 µM.

Consider `C=Cc1cc(C(=O)NC2c3ccc(C)cc3Oc3cc(C)ccc32)c(=O)[nH]c1C(F)(F)F` [Compound 182, N-(3,6-dimethyl-9H-xanthen-9-yl)-2-oxo-6-(trifluoromethyl)-5-vinyl-1,2-dihydropyridine-3-carboxamide], for which the IC50 on HSD17B13 was 0.02 µM; on HSD17B2, 10.3 µM; on HSD17B1 it was 5.16 µM.

For `Cc1ccc2c(c1)Oc1cc(C)ccc1C2NC(=O)c1cc(C2=CCCCC2)c(C(F)(F)F)[nH]c1=O` [Compound 183, 5-(cyclohex-1-en-1-yl)-N-(3,6-dimethyl-9H-xanthen-9-yl)-2-oxo-6-(trifluoromethyl)-1,2-dihydropyridine-3-carboxamide], the IC50 on HSD17B13 is 0.03 µM; at HSD17B2 it was 9.61 µM; on HSD17B1, 4.55 µM.

For `Cc1ccc2c(c1)Oc1cc(C)ccc1C2NC(=O)c1cnc(C(F)(F)F)[nH]c1=O` [Compound 194, N-(3,6-dimethyl-9H-xanthen-9-yl)-6-oxo-2-(trifluoromethyl)-1,6-dihydropyrimidine-5-carboxamide], the IC50 worked out at 0.09 µM on HSD17B13, 17.4 µM at HSD17B2 and 19.2 µM at HSD17B1.

Consider `CCCc1cc(CCC)cc(NC(=O)c2ccc(C(F)(F)F)[nH]c2=O)c1` [Compound 271, N-(3,5-dipropylphenyl)-2-oxo-6-(trifluoromethyl)-1,2-dihydropyridine-3-carboxamide], for which the IC50 on HSD17B13 is 2.11 µM; on HSD17B2, more than 100 µM; at HSD17B1 it was 27.9 µM.

In the case of `COc1ccc2c(c1)Sc1cc(OC)ccc1C2NC(=O)c1ccc(C(F)F)[nH]c1=O` [Compound 274, 6-(difluoromethyl)-N-(3,6-dimethoxy-9H-thioxanthen-9-yl)-2-oxo-1,2-dihydropyridine-3-carboxamide], the half-inhibitory concentration (IC50) came to 0.27 µM at HSD17B13, 9.16 µM on HSD17B2 and 8.39 µM at HSD17B1.

`Cc1ccc2c(c1)Sc1cc(C)ccc1C2NC(=O)c1ccc(C(F)F)[nH]c1=O` [Compound 282, 6-(difluoromethyl)-N-(3,6-dimethyl-9H-thioxanthen-9-yl)-2-oxo-1,2-dihydropyridine-3-carboxamide]: the IC50 was 0.14 µM on HSD17B13, more than 100 µM on HSD17B2 and more than 30 µM at HSD17B1.

Regarding `CCC1CCC(NC(=O)c2ccc(C(F)(F)F)[nH]c2=O)c2ccc(C)cc21` (stereo not drawn) [Compound 300, N-(4-ethyl-6-methyl-1,2,3,4-tetrahydronaphthalen-1-yl)-2-oxo-6-(trifluoromethyl)-1,2-dihydropyridine-3-carboxamide], the IC50 came out at 0.14 µM at HSD17B13, 10.2 µM at HSD17B2 and 18 µM at HSD17B1.

On to `Cc1ccc2c(c1)C(C)CCC2NC(=O)c1ccc(C(F)(F)F)[nH]c1=O` (stereo not drawn) [Compound 302, N-(4,6-dimethyl-1,2,3,4-tetrahydronaphthalen-1-yl)-2-oxo-6-(trifluoromethyl)-1,2-dihydropyridine-3-carboxamide], for which the figures for the IC50 at HSD17B13, at HSD17B2 and at HSD17B1 were 0.16 µM, 23 µM and more than 30 µM, respectively.

For `CCCc1sc2cc(C)ccc2c1NC(=O)c1ccc(C(F)(F)F)[nH]c1=O` [Compound 308, N-(6-methyl-2-propylbenzo[b]thiophen-3-yl)-2-oxo-6-(trifluoromethyl)-1,2-dihydropyridine-3-carboxamide], the IC50 at HSD17B13 was determined as 0.07 µM; on HSD17B2, 16.9 µM; on HSD17B1, 15.4 µM.

`CCc1sc2cc(C)ccc2c1NC(=O)c1ccc(C(F)(F)F)[nH]c1=O` [Compound 309, N-(2-ethyl-6-methylbenzo[b]thiophen-3-yl)-2-oxo-6-(trifluoromethyl)-1,2-dihydropyridine-3-carboxamide]: the values for the IC50 on HSD17B13, at HSD17B2 and on HSD17B1 were 0.08 µM, 22.6 µM and 14.3 µM, respectively.

`COc1ccc2c(c1)Sc1cccnc1C2NC(=O)c1ccc(C(F)(F)F)[nH]c1=O` (stereo not drawn) [Compound 321, N-(7-methoxy-10H-thiochromeno[3,2-b]pyridin-10-yl)-2-oxo-6-(trifluoromethyl)-1,2-dihydropyridine-3-carboxamide]: the IC50 is 0.22 µM on HSD17B13, 8.32 µM on HSD17B2 and more than 30 µM at HSD17B1.

Consider `COc1ccc2c(c1)Sc1cnccc1C2NC(=O)c1ccc(C(F)(F)F)[nH]c1=O` (stereo not drawn) [Compound 323, N-(8-methoxy-5H-thiochromeno[2,3-c]pyridin-5-yl)-2-oxo-6-(trifluoromethyl)-1,2-dihydropyridine-3-carboxamide], for which the figures for the IC50 at HSD17B13, on HSD17B2 and at HSD17B1 were 0.22 µM, 35.5 µM and more than 30 µM, respectively.

For the compound `Cc1cnc2c(c1)Oc1ccccc1C2NC(=O)c1ccc(C(F)(F)F)[nH]c1=O` (stereo not drawn) [Compound 324, N-(3-methyl-10H-chromeno[3,2-b]pyridin-10-yl)-2-oxo-6-(trifluoromethyl)-1,2-dihydropyridine-3-carboxamide], the IC50 was 0.04 µM on HSD17B13, 56.4 µM on HSD17B2 and more than 30 µM on HSD17B1.

As to `Cc1ccc2c(c1)Oc1cnccc1C2NC(=O)c1ccc(C(F)(F)F)[nH]c1=O` (stereo not drawn) [Compound 328, N-(8-methyl-5H-chromeno[2,3-c]pyridin-5-yl)-2-oxo-6-(trifluoromethyl)-1,2-dihydropyridine-3-carboxamide], the IC50 on HSD17B13 is 0.11 µM; at HSD17B2, more than 100 µM; on HSD17B1, 4.16 µM.

For `Cc1ccc2c(c1)Oc1ccncc1C2NC(=O)c1ccc(C(F)(F)F)[nH]c1=O` (stereo not drawn) [Compound 330, N-(7-methyl-10H-chromeno[3,2-c]pyridin-10-yl)-2-oxo-6-(trifluoromethyl)-1,2-dihydropyridine-3-carboxamide], the IC50 at HSD17B13 was 0.08 µM; at HSD17B2 it was 22.1 µM; on HSD17B1 it was more than 30 µM.

On to `CCC[C@@H]1Oc2ccc(C)cc2[C@@H]1NC(=O)c1ccc(C(F)(F)F)[nH]c1=O` [Compound 354, N-((2S,3S)-5-methyl-2-propyl-2,3-dihydrobenzofuran-3-yl)-2-oxo-6-(trifluoromethyl)-1,2-dihydropyridine-3-carboxamide], for which the values for the IC50 at HSD17B13, at HSD17B2 and on HSD17B1 were 0.51 µM, 29.3 µM and more than 30 µM, respectively.

For the compound `CCC1Oc2ccc(C)cc2C1NC(=O)c1ccc(C(F)(F)F)[nH]c1=O` (stereo not drawn) [Compound 355, N-(2-ethyl-5-methyl-2,3-dihydrobenzofuran-3-yl)-2-oxo-6-(trifluoromethyl)-1,2-dihydropyridine-3-carboxamide], the IC50 on HSD17B13 was 0.52 µM; at HSD17B2, 37.6 µM; at HSD17B1 it was more than 30 µM.
